# Experimental data as given in patent US20230303604A1, “METALLIC TRANS-(N-HETEROCYCLIC CARBENE)-AMINE-PLATINUM COMPLEXES AND USES THEREOF FOR TREATING CANCER” (INSTITUT CURIE, priority 2020, published 2023).
# What was measured:
# Format in all cases: cell-based
# A2780 cells = assay: Immunofluorescence assay, DNA damage repair kinetics (γ-H2AX and 53BP1 foci); details: A2780, 2 Gy, 2 h and 6 h post irradiation, 1 day pre-treatment
# Method: Immunofluorescence Assays. A2780 cells were plated on coverslips in 6-well plates. After 1 day of incubation with the various NHC-Pt at their RS doses, cells were irradiated at 2 Gys, incubated the time indicated post-irradiation, washed with phosphate-buffered saline (PBS), then fixed 10 minutes in 4% formaldehyde. After a wash with PBS, cells were permeabilised 2 min using 0.5% Triton X-100 and is washed with PBS. The cells were incubated in blocking buffer (5% bovine serum albumin in PBS) for 30 min before being incubated for 1 h with the primary mouse monoclonal antibody against g-H2AX (milipore) or 53BP1. After three washes with PBS, the cells were incubated for an additional 1 h with the Alexa Fluor 488-conjugated secondary antibody (Alexa Fluor 488 goat anti-mouse IgG; Life Technologies). Nuclei were labeled using DAPI and the coverslides were mounted with Vectashield™. Acquisitions were performed on a3D-dev or 3D-SIM in the microscopy platform from Institut Curie. ImageJ software ([…]) was used to project the z-stacks and count the number of g-H2AX or 53BP1 spots as well as their intensity and size in nuclei. […]
# The inventors analyzed, by immunofluorescence, the γ-H2AX and 53BP1 foci, γ-H2AX being a DNA damage sensor and 53BP1 being a DNA repair sensor at different time post-irradiation (0.5-24 h).
# H1299 cell lines = assay: Radiosensitization assay on H1299; details: H1299, 1 μM complex, 1 day pretreatment, D10 six days post-irradiation
# Method: (§1) For one day or 10 min pretreatment, cells were seeded at a number allowing 5 doubling populations growth without reaching confluence in the untreated samples. They were then pretreated during the time indicated at the indicated NHC-Pt concentrations, irradiated at 1, 2, 3 and 4 Gy for A2780 cell lines and 2. 4. 6 and 8 Gy for H1299 and allow growing until 6 days. IC5 cells were irradiated at 1, 2, 3, 4 and 5 Gy, CC11^+ were irradiated at 2, 3, 4, 5 and 6 Gy and allow growing until 7 days, CRL1550 were irradiated at 2, 4, 6 and 8 Gy and allow growing until 5 days. CRL79200 were irradiated at 1, 2, 3 and 4 Gy and allow growing until 15 days. For 4 days pretreatment, cells were seeding in the conditions of cell cytotoxicity determination, trypsinised, seeded at a number allowing 5 doubling population growth without reaching confluence in the untreated samples and treated one day before irradiation. Irradiation is using GSR D1 irradiator (gamma-ray, 662 keV). The cells were left to grow for 6 days to allow at least 5 population doublings. Cell count of each well is taken and a graph is plotted with the percentage survival of each treatment of cells with its control (0 Gy). […]
# (§2) All the complexes were first evaluated for their radiosensitizing properties on A2780 and H1299 cell lines. […] The D10 doses were evaluated as the doses allowing 10% survival six days post-irradiation. […]
# [1] = system: A2780cis (A2780/DDP) cells; assay: Cell proliferation evaluation on cisplatin-resistant A2780cis; details: for ability to counteract the cisplatin resistance: A780cis cell line
# Method: (§3) Cell culture. The A2780 ovarian carcinoma cell lines were purchased from ECACC (Salisbury, UK) and were grown in complete RPMI medium supplemented with 10% fetal calf serum, in the presence of penicillin, streptomycin. The resistance of A2780/DDP cells to cisplatin was maintained by monthly treatment with 1 μM cisplatin for 4 days. H1299 Non Small Cell Lung Carcinoma (ATCC® CRL-5803™) and were grown in RPMI medium supplemented with 10% fetal calf serum, 1% HEPES, 1% Sodium Pyruvate in the presence of penicillin and streptomycin. In addition, four cervical cancerous cell lines, already resistant to some conventional chemotherapy (Gemcitabin, methothrexate, vinorelbin and/or cisplatin) were chosen: IC5 (from Institut Curie), CRL1550 (ATCC® CRL1550™), CC11^+ (Cellosaurus CVCL_DF82) and CRL7920 (ATCC® CRL7920™). They were grown in complete RPMI medium supplemented with 10% fetal calf serum, in the presence of penicillin, streptomycin.
# Cell proliferation evaluation. Cells were treated with various concentrations of NHC-Pt, at 37° C. under humidity and 5% CO2 conditions for 96 h. Cellular growth was quantified using the Moxi Z Mini automated cell counter (Orflox technology). CellTiter Glo® Luminescent Cell Viability Assay following the kit instructions (Promega) was also used. But since doses that inhibit 50% of cell proliferation (IC50) not always correlated to the number of cells, as previously observed (Uehara, T., Mitsuhashi, A., Tsuruoka, N., and Shozu, M. (2015) Metformin potentiates the anticancer effects of cisplatin under normoxic conditions in vitro, Oncology reports 33, 744-750), cell counting was privileged. […]
# A2780 cell lines = assay: Radiosensitization assay on A2780; details: A2780, 1 μM complex, 1 day pretreatment, D10 six days post-irradiation
# Method: as §1, §2
# [2] = system: cervical cancerous cell lines (IC5, CC11^+, CRL1550, CRL7920); assay: Cell proliferation evaluation, statements over the cervical cancerous cell lines; details: three cervical cancerous cell lines
# Method: as §3
# (§4) Cell proliferation evaluation. Cells were treated with various concentrations of NHC-Pt, at 37° C. under humidity and 5% CO2 conditions for 96 h. Cellular growth was quantified using the Moxi Z Mini automated cell counter (Orflox technology). CellTiter Glo® Luminescent Cell Viability Assay following the kit instructions (Promega) was also used. […]
# [3] = system: CRL1550 cervical cancerous cell line; assay: Cell proliferation evaluation on CRL1550; details: CRL1550, 4 days treatment
# Method: as §3, §4
# [4] = system: IC5 cervical cancerous cell line; assay: Cell proliferation evaluation on IC5; details: IC5, 4 days treatment
# Method: as §3, §4
# [5] = system: CC11^+ cervical cancerous cell line; assay: Cell proliferation evaluation on CC11+; details: 4 days treatment
# Method: as §3, §4
# [6] = system: A2780 ovarian carcinoma cell lines; assay: Cell proliferation evaluation (cell counting) on A2780; details: A2780, 4 days (96 h) treatment
# Method: as §3, §4
Compound,radiosensitizing properties at 1 μM (H1299 cell lines),ability to counteract the cisplatin resistance [1],radiosensitizing properties at 1 μM (A2780 cell lines),cytotoxic activity as compared to C2 [2],other results
"CN1C=CN(CCCCCCN2C=CN(C)[CH]2[Pt]([NH2])([I])[I])[CH]1[Pt]([NH2])([I])[I] (stereo not drawn) [C2, [1,1′-(hexane-1,6-diyl)bis(3-methylimidazol-2-ylidene)]bis[trans-diiodo(ammonia)platinum]]",significant radiosensitizing properties,able to counteract the cisplatin resistance,significant radiosensitizing properties,,DNA damage repair after irradiation (γ-H2AX foci) (A2780 cells): induced a delay in the DNA damage repair
"CN1C=CN(CCCCCCN2C=CN(C)[CH]2[Pt]([I])([I])[N]2CCOCC2)[CH]1[Pt]([I])([I])[N]1CCOCC1 (stereo not drawn) [C7, [1,1′-(hexane-1,6-diyl)bis(3-methylimidazol-2-ylidene)]bis[trans-diiodo(N-morpholine)platinum]]",,,,improved cytotoxic activity,
"OCCN1C=CN(CCCCCCN2C=CN(CCO)[CH]2[Pt]([I])([I])[NH]C2CCCCC2)[CH]1[Pt]([I])([I])[NH]C1CCCCC1 (stereo not drawn) [C9, {1,1′-(hexane-1,6-diyl)bis[3-(2-hydroxethyl)imidazol-2-ylidene]}bis{[trans-diiodo(N-cyclohexylamine)platinum]}]",,,,improved cytotoxic activity,
"N.N.[Cl][Pt][Cl] [Cisplatin, cisplatin]",,,,,"IC50 [3]: 0.39 ± 0.04 µM; IC50 [4]: 0.49 ± 0.05 µM; IC50 ([1]; cisplatin-resistant cell line, 96 h, read-out: IC50 in A780cis cell line): 6 µM; IC50 [5]: 0.006 µM; IC50 [6]: 0.3 µM"
"CN1C=CN(C)[CH]1[Pt]([NH2])([I])[I] [MS113, trans-Diiodo(ammonia)(1,3-dimethylimidazol-2-ylidene)platinum]",,it is not the case,,,
"CN1C=CN(C)[CH]1[Pt]([I])([I])[NH]C1CCCCC1 [MS140, trans-Diiodo(N-cyclohexylamine)(1,3-dimethylimidazol-2-ylidene)platinum]",significant radiosensitizing properties,,significant radiosensitizing properties,,
